Like-named read-outs stand apart in the source and are kept apart here.

The conditions of data set [1]: rcm bond.
The conditions of data set [2]: 16-membered ring.
The conditions of data set [3]: amide bond, 16-membered ring, EDCI/HOBt/DIEA, DMF.
A further data set addresses β5c of hu c-20S (Homo sapiens (Human), UniProt P20618+P28074). Kind of data set: IC50 determination against β5c of human constitutive proteasome (suc-LLVY-AMC hydrolysis).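 Note: IC50 obtained by fitting initial reaction velocities to a dose-dependent inhibition model, with SDS present as proteasome activator.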 The format is biochemical. The conditions noted are these: 0.2 nM c-20S, 25 μM suc-LLVY-AMC.
Another data set deals with β5i of hu i-20S (Homo sapiens (Human), UniProt P20618+P28062). The experiment in a line: IC50 determination against β5i of human immunoproteasome (Ac-ANW-AMC hydrolysis).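 Note: enzyme activity taken as the initial reaction velocity per well, with SDS added to activate the proteasome.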 The format is biochemical. The conditions noted are these: β5i, 0.4 nM i-20S, 15 μM Ac-ANW-AMC.

Consider `O=C(NC1CCCC1)[C@@H]1CC=CCOc2cccc(c2)C[C@H](N2CCCC2=O)C(=O)N[C@@H](CCN2CCC(F)(F)CC2)C(=O)N1`, for which, in data set [1] (from C=CCOc1cccc(C[C@@H](C(=O)N[C@@H](CCN2CCC(F)(F)CC2)C(=O)N[C@@H](CC=C)C(=O)NC2CCCC2)N2CCCC2=O)c1, Grubbs catalyst 2nd Generation, 1,2-dichloroethane, 5.07 mM, 60.0 °C, 12.0 h), the ring closure, yield of all isomers was 61.6%.

In the case of “(5S,8S,11S)-11-Acetamido-7,10-dioxo-8-propyl-N-(2,2,2-trifluoroethyl)-2-oxa-6,9-diaza-1,3(1,3)-dibenzenacyclododecaphane-5-carboxamide”, in data set [2] (amide bond, HATU/DIEA, DMF, […], 0.0 °C), the ring closure, isolated yield turned out to be 18.7%.

As to `O=C1CCc2cccc(c2)OCC=CC[C@@H](C(=O)NC2CCCC2)NC(=O)[C@H](CC(=O)N2CCCC2C2CC2)N1` (stereo partly shown), the ring closure, yield of all isomers in data set [1] (from C=CCOc1cccc(CCC(=O)N[C@@H](CC(=O)N2CCCC2C2CC2)C(=O)N[C@@H](CC=C)C(=O)NC2CCCC2)c1, Grubbs 2nd generation, 1,2-dichloroethane, 4.09 mM, 50.0 °C, 12.0 h) worked out at 46.7%.

In turn, `CC(=O)N[C@H]1Cc2cccc(c2)OCC=CC[C@@H](C(=O)NCC(F)(F)F)NC(=O)[C@H](CCc2ccccc2)NC1=O` registered a ring closure, yield of all isomers in data set [1] (from C=CCOc1cccc(C[C@H](NC(C)=O)C(=O)N[C@@H](CCc2ccccc2)C(=O)N[C@@H](CC=C)C(=O)NCC(F)(F)F)c1, Grubbs 2nd generation catalyst, DCM, 5.33 mM, 40.0 °C, 4.0 h) of 47%.

The compound “(7S,10S,13S,E)-13-Acetamido-9,12-dioxo-10-phenethyl-N-(2,2,2-trifluoroethyl)-2-oxa-8,11-diaza-1(1,3)-benzenacyclotetradecaphan-4-ene-7-carboxamide” had a ring closure, isolated yield in data set [2] (rcm bond, Grubbs II, DCM, 5.3 mM, 40.0 °C) of 47%.

“(hex-5-enoyl)-Asp(OBn)-((2S)-2-aminonon-8-enoic acid)-OtBu?”: in data set [2] (the molecule shown is the open-chain precursor, rcm bond, Grubbs II, toluene, 1.27 mM, 40.0 °C), the ring closure, isolated yield was 92.6%.

For the compound “(5S,8S,11S)-6-Methyl-7,10-dioxo-11-(2-oxopyrrolidin-1-yl)-8-phenethyl-N-(2,2,2-trifluoroethyl)-2-oxa-6,9-diaza-1,3(1,3)-dibenzenacyclododecaphane-5-carboxamide”, the ring closure, yield after HPLC in data set [3] (18.3 mM, 25.0 °C) was 26%.

With `COC(=O)[C@@H]1CCCCCC=CCCC(Cc2ccccc2)C(=O)N[C@@H](CC(=O)OCc2ccccc2)C(=O)N1` (stereo partly shown), the ring closure, yield of all isomers in data set [1] (from C=CCCCCC[C@H](NC(=O)[C@H](CC(=O)OCc1ccccc1)NC(=O)C(CCC=C)Cc1ccccc1)C(=O)OC, Grubbs 2nd generation, 1,2-dichloroethane, 10.75 mM, 50.0 °C, 24.0 h) stood at 53%.

In data set [3] (15.8 mM, 20.0 °C), “(5S,8S,11S)-7,10-Dioxo-11-(2-oxopyrrolidin-1-yl)-8-(2-(piperidin-1-yl)ethyl)-N-(2,2,2-trifluoroethyl)-2-oxa-6,9-diaza-1,3(1,3)-dibenzenacyclododecaphane-5-carboxamide” yielded a ring closure, yield after HPLC of 24.2%.

In data set [2] (the molecule shown is the open-chain precursor, rcm bond, Grubbs II, DCM, 24.9 mM, 40.0 °C), “Ac-Gly(allyl)-hPhe-Phe(3-OAllyl)-NHCH2CF3?” came in with a ring closure, isolated yield of 88.8%.

Take `O=C1CCc2cccc(c2)OCCCC[C@@H](C(=O)NCc2ccccc2F)NC(=O)[C@H](CC(=O)N2CCCC2C2CC2)N1` (single isomer, unassigned) [Compound 3-46-B]: the results for the 50% inhibitory concentration (IC50) at β5c of hu c-20S and against β5i of hu i-20S were 1.35 µM and 0.312 µM, respectively.

For the compound `O=C1CCc2cccc(c2)OCCCC[C@@H](C(=O)NC2CCCC2)NC(=O)[C@H](CC(=O)N2CCCC2C2CC2)N1` (single isomer, unassigned) [Compound 3-45-B], the half-maximal inhibitory concentration (IC50) (in general, the concentration needed to halve the response being measured) against β5c of hu c-20S is 3.6 µM; at β5i of hu i-20S it was greater than 100 µM.

On to `Cn1cc(CNC(=O)[C@@H]2Cc3cccc(c3)Oc3cccc(c3)C[C@H](NC(=O)CO)C(=O)N[C@@H](CCc3ccccc3)C(=O)N2)cn1` [Compound 1-05], for which the IC50 against β5c of hu c-20S is greater than 100 µM; against β5i of hu i-20S, 14.8 µM.

Take `CC(=O)N[C@H]1Cc2cccc(c2)OC/C=C/C[C@@H](C(=O)NCC(F)(F)F)NC(=O)[C@H](CCc2ccccc2)NC1=O` [Compound 3-01, (7S,10S,13S,E)-13-Acetamido-9,12-dioxo-10-phenethyl-N-(2,2,2-trifluoroethyl)-2-oxa-8,11-diaza-1(1,3)-benzenacyclotetradecaphan-4-ene-7-carboxamide]: the IC50 against β5c of hu c-20S turned out to be 0.78 µM; against β5i of hu i-20S, 15.6 µM.

Compound `CC(C)(C)OC(=O)[C@@H]1CCCCCC=CCCCC(=O)N[C@@H](CC(=O)OCc2ccccc2)C(=O)N1` displayed a ring closure, yield of all isomers in data set [1] (from C=CCCCCC[C@H](NC(=O)[C@H](CC(=O)OCc1ccccc1)NC(=O)CCCC=C)C(=O)OC(C)(C)C, Grubbs 2nd Generation catalyst, toluene, 1.27 mM, 40.0 °C, 16.0 h) of 92.6%.

Regarding `O=C1CCc2cccc(c2)OCCCC[C@@H](C(=O)NC2CCCC2)NC(=O)[C@H](CCN2CCC(F)(F)CC2)N1` [Compound 3-43], the values for the half-inhibitory concentration (IC50) against β5c of hu c-20S and against β5i of hu i-20S were 75.5 µM and greater than 100 µM, respectively.

As for `COC(=O)C1COCCOc2cccc(c2)CCC(=O)NC(CCc2ccccc2)C(=O)N1` [Compound 3-05, Methyl-(7S,10S)-9,12-dioxo-10-phenethyl-2,5-dioxa-8,11-diaza-1(1,3)-benzenacyclotetradecaphane-7-carboxylate], the 50% inhibitory concentration (IC50) is 23.1 µM on β5c of hu c-20S and greater than 10 µM against β5i of hu i-20S.

`CC(=O)N[C@H]1CC=CCOc2cccc(c2)C[C@@H](C(=O)NCC(F)(F)F)NC(=O)[C@H](CCc2ccccc2)NC1=O`: the ring closure, yield of all isomers in data set [1] (from C=CCOc1cccc(C[C@H](NC(=O)[C@H](CCc2ccccc2)NC(=O)[C@H](CC=C)NC(C)=O)C(=O)NCC(F)(F)F)c1, Grubbs 2nd generation catalyst, DCM, 24.9 mM, 40.0 °C, 4.0 h) was determined as 88.8%.

For the compound `CCN(CC)[C@H]1Cc2cccc(c2)Oc2cccc(c2)C[C@@H](C(=O)NCc2ccccc2)NC(=O)[C@H](CCc2ccccc2)NC1=O` [Compound 1-16], the 50% inhibitory concentration (IC50) against β5c of hu c-20S came out at 22.9 µM; on β5i of hu i-20S, 100 µM.

Take `O=C(CC(F)(F)F)N[C@H]1Cc2cccc(c2)Oc2cccc(c2)C[C@@H](C(=O)NCC(F)(F)F)NC(=O)[C@H](CCc2ccccc2)NC1=O` [Compound 1-55, (5S,8S,11S)-7,10-Dioxo-8-phenethyl-N-(2,2,2-trifluoroethyl)-11-(3,3,3-trifluoropropanamido)-2-oxa-6,9-diaza-1,3(1,3)-dibenzenacyclododecaphane-5-carboxamide]: the IC50 on β5c of hu c-20S and on β5i of hu i-20S was greater than 100 µM throughout.

Turning to `O=C1CCc2cccc(c2)OCCCC[C@@H](C(=O)NC2CCCC2)NC(=O)[C@H](CCc2ccc(F)cc2)N1` [Compound 3-39, (7S,10S)—N-Cyclopentyl-10-(4-fluorophenethyl)-9,12-dioxo-2-oxa-8,11-diaza-1(1,3)-benzenacyclotetradecaphane-7-carboxamide], the IC50 against β5c of hu c-20S is 38.6 µM; against β5i of hu i-20S, greater than 100 µM.

In the case of `CC(C)(C)NC(=O)[C@@H]1Cc2cccc(c2)Oc2cccc(c2)C[C@H](NS(C)(=O)=O)C(=O)N[C@@H](CCc2ccccc2)C(=O)N1` [Compound 1-37], the half-inhibitory concentration (IC50) on β5c of hu c-20S is 3.6 µM; against β5i of hu i-20S, greater than 100 µM.

Turning to `O=C1CCC/C=C\CCCCC[C@@H](C(=O)NCc2cccc3ccccc23)NC(=O)[C@H](CC(=O)N2CCCC2)N1` [Compound 4-05, (2S,5S,11Z)—N-(1-Naphthylmethyl)-3,16-dioxo-2-(2-oxo-2-pyrrolidin-1-yl-ethyl)-1,4-diazacyclohexadec-11-ene-5-carboxamide], the ring closure, yield of all isomers in data set [1] (from C=CCCCCC[C@H](NC(=O)[C@H](CC(=O)N1CCCC1)NC(=O)CCCC=C)C(=O)NCc1cccc2ccccc12, Grubbs 2nd Generation catalyst, CH2Cl2, 1.11 mM, 50.0 °C, 20.0 h) came to 36%. Further, the results for the IC50 on β5c of hu c-20S and against β5i of hu i-20S were greater than 100 µM and 4.36 µM, respectively. For the same compound, the ring closure, isolated yield in data set [2] (from (hex-5-enoyl)-Asp(pyrrolidin-1-yl amide)-((2S)-2-aminonon-8-enoic acid)-NHCH2(1-naphthyl)?, rcm bond, Grubbs II, CH2Cl2, 1.11 mM, 50.0 °C) came to 36%.

As to `O=C1CCc2cccc(c2)OCC=CC[C@@H](C(=O)NC2CCCC2)NC(=O)[C@H](CCc2ccc(F)cc2)N1`, the ring closure, yield of all isomers in data set [1] (from C=CCOc1cccc(CCC(=O)N[C@@H](CCc2ccc(F)cc2)C(=O)N[C@@H](CC=C)C(=O)NC2CCCC2)c1, Grubbs catalyst 2nd generation, 1,2-dichloroethane, […], 60.0 °C, 12.0 h) was 65%.

As for `C[C@H]1Cc2cccc(c2)OCCCC[C@@H](C(=O)NC2CCCC2)NC(=O)[C@H](CCN2CCOCC2)NC1=O` (single isomer, unassigned) [Compound 3-37], the IC50 is 56.7 µM against β5c of hu c-20S and greater than 100 µM at β5i of hu i-20S.

As to `COC1(CNC(=O)[C@@H]2Cc3cccc(c3)Oc3cccc(c3)CCC(=O)N[C@@H](CCN3CCOCC3)C(=O)N2)CC1` [Compound 1-90], the figures for the IC50 at β5c of hu c-20S and on β5i of hu i-20S were 68.1 µM and greater than 100 µM, respectively.

Take `O=C1CCCCCCCCOC[C@@H](C(=O)NCc2cccc3ccccc23)NC(=O)[C@H](CC(=O)N2CCCC2)N1` [Compound 4-15, (3S,6S)—N-(Naphthalen-1-ylmethyl)-5,8-dioxo-6-(2-oxo-2-(pyrrolidin-1-yl)ethyl)-1-oxa-4,7-diazacyclohexadecane-3-carboxamide]: the IC50 at β5c of hu c-20S was determined as 3.67 µM; on β5i of hu i-20S, 4.71 µM.

As to `O=C1CCc2cccc(c2)OCCCC[C@@H](C(=O)NCc2ccccc2F)NC(=O)[C@H](CCN2CCOCC2)N1` [Compound 3-26], the 50% inhibitory concentration (IC50) is 3.4 µM on β5c of hu c-20S and 3.5 µM against β5i of hu i-20S.

Compound “(2-benzylhex-5-enoyl)-Asp(OBn)-(2-aminonon-8-enoic acid)-OMe?” showed a ring closure, isolated yield in data set [2] (the molecule shown is the open-chain precursor, rcm bond, Grubbs II, DCE, […], 50.0 °C) of 53%.

For the origin of these results see patent US20240043470A1, “MACROCYCLIC COMPOUNDS AS PROTEASOME INHIBITORS” (CORNELL UNIVERSITY, priority 2017, published 2024).
